Patent EP4656640A1, “IRAK4 DEGRADER AND USE THEREOF” (Shanghai Qilu Pharmaceutical Research and Development …, priority 2023, dated 2024)

Legend:
[1] = Mouse pharmacokinetics, oral (Experiment 1); type: in vivo, C57BL/6 mice; conditions: mice, PO 100 mg/kg, fasted overnight, plasma
Description: C57BL/6 mice were used as test animals to study the pharmacokinetic behavior of the compounds of the present disclosure in mouse plasma after oral administration at a dose of 100 mg/kg.
C57BL/6, male, transferred from the animal repository of the laboratory institution (999M-018).
Three male C57BL/6 mice were fasted overnight (10-14 hours) with free access to water one day before administration. The mice were fed 4 hours after administration. The dose for PO administration was 100 mg/kg, with an administration volume of 20 mL/kg.
After administration, blood samples (0.03 mL) were collected from the mice via venipuncture at 0.083, 0.25, 0.5, 1, 2, 4, 8, and 24 hours. The samples were placed in EDTA-K2 tubes and centrifuged at 6800 rpm for 5 minutes at 2-8°C. The plasma was separated and stored at -80°C.
• 1) 10 µL of plasma sample was added to 200 µL of methanol for precipitation. After mixing, the mixture was centrifuged at 18000 g for 10 minutes. • 2) The processed supernatant solution was taken for LC/MS/MS analysis to determine the concentration of the test compound.
• Liquid phase conditions: Shimadzu LC-30AD pump • Mass spectrometry conditions: AB Sciex API 5500 mass spectrometer • Chromatographic column: Phenomenex Kinetex 2.6 µm C18 50 3.0 mm • Mobile phase: Solution A was 0.1% formic acid in water, and solution B was 0.1% formic acid in acetonitrile • Flow rate: 0.6 mL/min • Elution time: Gradient elution for 0-1.6 minutes.
The main pharmacokinetic parameters were calculated using WinNonlin 8.0.

inflammatory factors = assay: Inflammatory factors in plasma and peritoneal lavage fluid, IL-33-induced acute inflammation in mice (ELISA); type: in vivo, C57BL/6J mice; conditions: FIG. 1
Description: IL-33, a member of the IL-1 cytokine family, is the ligand for IL-1 receptor-like 1 or ST2. […] The effect of the compounds on inflammation in the IL-1R signaling pathway was investigated using an acute inflammatory model in mice induced by intraperitoneal injection of IL-33.
Preparation of IL-33 inducer: The mouse recombinant IL-33 powder was prepared as a 1 µg/µL stock solution. When using, 40 µL of the 1 µg/µL IL-33 solution was added to 3960 µL of PBS, mixed well by inversion, to obtain 4 mL of IL-33 solution with a concentration of 1 µg/100 µL, which was prepared freshly before use.

IRAK4 [2] = molecular target: T1, IRAK4 (Mus musculus, UniProt Q8R4K2); assay: In vivo degradation of IRAK4 in mouse spleen, IL-33 model (LC-MS); parameters: species or system C57BL/6J mice; conditions: Example 22 at 50 mpk, comparable drug concentrations in the spleen, FIG. 2
T1 sequence (Q8R4K2 1-459): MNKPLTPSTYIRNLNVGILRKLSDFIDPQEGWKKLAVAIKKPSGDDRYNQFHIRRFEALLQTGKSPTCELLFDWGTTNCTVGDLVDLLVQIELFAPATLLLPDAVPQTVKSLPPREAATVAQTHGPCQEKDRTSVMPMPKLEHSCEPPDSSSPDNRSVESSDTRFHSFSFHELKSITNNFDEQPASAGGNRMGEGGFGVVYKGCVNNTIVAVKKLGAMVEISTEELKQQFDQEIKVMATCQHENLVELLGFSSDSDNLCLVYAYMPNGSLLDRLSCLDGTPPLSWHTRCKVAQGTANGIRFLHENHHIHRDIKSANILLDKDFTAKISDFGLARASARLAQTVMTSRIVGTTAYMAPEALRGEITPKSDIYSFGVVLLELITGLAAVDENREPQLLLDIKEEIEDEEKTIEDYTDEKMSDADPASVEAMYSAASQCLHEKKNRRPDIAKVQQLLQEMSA

IRAK4 [3] = molecular target: T2, IRAK4 (Homo sapiens, UniProt Q9NWZ3); assay: Degradation of IRAK4 in SU-DHL-2 cells (flow cytometry); type: cell-based; parameters: The degradation level of IRAK4 protein in SU-DHL-2 cell line by the compounds was detected by flow cytometry; endogenous in cells; host or cells: SU-DHL-2; OCI-LY3; conditions: SU-DHL-2 cells, 24 hours incubation; read-out: SU-DHL-2 DC50
T2 sequence (Q9NWZ3 1-460): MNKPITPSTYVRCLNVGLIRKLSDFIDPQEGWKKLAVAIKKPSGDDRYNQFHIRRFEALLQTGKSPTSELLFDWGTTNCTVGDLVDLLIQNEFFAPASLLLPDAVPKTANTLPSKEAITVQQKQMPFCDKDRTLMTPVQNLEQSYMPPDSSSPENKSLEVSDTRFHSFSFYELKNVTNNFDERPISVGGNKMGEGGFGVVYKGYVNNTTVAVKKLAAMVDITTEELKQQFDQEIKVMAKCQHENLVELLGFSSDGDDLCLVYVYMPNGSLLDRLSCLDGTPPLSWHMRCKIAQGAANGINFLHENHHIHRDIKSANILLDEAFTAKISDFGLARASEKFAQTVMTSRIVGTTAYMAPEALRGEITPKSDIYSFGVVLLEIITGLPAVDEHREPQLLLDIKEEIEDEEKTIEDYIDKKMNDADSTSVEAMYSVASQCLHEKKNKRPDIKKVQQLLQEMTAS

Compound | AUC(0-inf) [1] [ng·h/mL] | AUC(0-t) at 24 h [1] [ng·h/mL] | Cmax [1] [ng/mL] | MRT inf [1] [h] | Tmax [1] [h] | half-life [1] [h] | anti-inflammatory effect compared with KT474 (inflammatory factors; at comparable drug concentrations in plasma) | inflammatory factors in mouse plasma and peritoneal lavage fluid (inflammatory factors; mice, PO 15, 50 and 150 mg/kg, IL-33 induction) | degradation effect of IRAK4 in mouse spleen compared with KT-474 at 150 mpk (IRAK4 [2]) | DC50 (IRAK4 [3]) [nM]
Cn1c(=O)n(C2CCC(=O)NC2=O)c2cccc(C#CCCN3CCC4(CC3)CC(n3cc(NC(=O)c5cnn6ccc(N7C[C@H]8C[C@@H]7CO8)nc56)c(C(F)F)n3)C4)c21 (some centres unmarked) [Example 22] | 18400 | 17600 | 1400 | 8 | 1.7 | 5.4 | superior | concentration-dependent reduction | 2-3 times | 1.4
Cn1c(=O)n(C2CCC(=O)NC2=O)c2cccc(C#CCOC34CCC(CN5CCC6(CC5)CC(n5cc(NC(=O)c7cnn8ccc(N9C[C@H]%10C[C@@H]9CO%10)nc78)c(C(F)F)n5)C6)(CC3)CC4)c21 (some centres unmarked) [Example 52] | – | – | – | – | – | – | – | – | – | 3
